Test results reported in PubChem BioAssay AID330 (DTP/NCI, 2004).
Where “and” joins values, the source holds several entries; their conditions need not be identical. Identical values can stand only once. Toxic doses and inconclusive results are not listed.

Tested on: P388 leukemia ip, CD2F1 mice, survival T/C
Assay: NCI In Vivo Anticancer Drug Screen. Data for tumor model P388 Leukemia (intraperitoneal) in CD2F1 (CDF1) mice
Conditions: endpoint: median survival time, higher = longer survival
Outline: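 Mice carrying the transplanted tumor received test compound or vehicle. Survival was recorded in each group, and the value is the treated-group measurement divided by that of the vehicle-treated control group.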

[1] = dose: 60.0 mg/kg/injection, schedule: Q01DX005 (ip), vehicle: Klucel (hydroxypropylcellulose) (HPC)
[2] = dose: 120.0 mg/kg/injection, schedule: Q01DX005 (ip), vehicle: Klucel (hydroxypropylcellulose) (HPC)
[3] = dose: 240.0 mg/kg/injection, schedule: Q01DX005 (ip), vehicle: Klucel (hydroxypropylcellulose) (HPC)
[4] = dose: 50.0 mg/kg/injection, schedule: Q01DX009 (ip), vehicle: saline
[5] = dose: 100.0 mg/kg/injection, schedule: Q01DX009 (ip), vehicle: saline
[6] = dose: 200.0 mg/kg/injection, schedule: Q01DX009 (ip), vehicle: saline
[7] = dose: 12.5 mg/kg/injection, schedule: Q01DX009 (ip), vehicle: Klucel (hydroxypropylcellulose) (HPC)
[8] = dose: 25.0 mg/kg/injection, schedule: Q01DX009 (ip), vehicle: Klucel (hydroxypropylcellulose) (HPC)
[9] = dose: 50.0 mg/kg/injection, schedule: Q01DX009 (ip), vehicle: Klucel (hydroxypropylcellulose) (HPC)
[10] = dose: 100.0 mg/kg/injection, schedule: Q01DX009 (ip), vehicle: Klucel (hydroxypropylcellulose) (HPC)
[11] = dose: 200.0 mg/kg/injection, schedule: Q01DX009 (ip), vehicle: Klucel (hydroxypropylcellulose) (HPC)
[12] = dose: 50.0 mg/kg/injection, schedule: Q01DX005 (ip), vehicle: Klucel (hydroxypropylcellulose) (HPC)
[13] = dose: 100.0 mg/kg/injection, schedule: Q01DX005 (ip), vehicle: Klucel (hydroxypropylcellulose) (HPC)
[14] = dose: 200.0 mg/kg/injection, schedule: Q01DX005 (ip), vehicle: Klucel (hydroxypropylcellulose) (HPC)
[15] = dose: 50.0 mg/kg/injection, schedule: Q01DX005 (ip), vehicle: saline with Tween-80
[16] = dose: 100.0 mg/kg/injection, schedule: Q01DX005 (ip), vehicle: saline with Tween-80
[17] = dose: 200.0 mg/kg/injection, schedule: Q01DX005 (ip), vehicle: saline with Tween-80

Cc1ccc(C)c2c1C(O)(C#Cc1ccccc1)c1ccccc1C2(O)C#Cc1ccccc1 (centres undefined)
T/C (dose: 50.0 mg/kg/injection, schedule: Q01DX009 (ip), vehicle: saline with Tween-80): 86 % of control
T/C (dose: 100.0 mg/kg/injection, schedule: Q01DX009 (ip), vehicle: saline with Tween-80): 86 % of control

COc1ccc(-c2csc(=[N+]3CCCCC3)s2)cc1
T/C (dose: 3.13 mg/kg/injection, schedule: Q01DX009 (ip), vehicle: water): 100 % of control
T/C (dose: 6.25 mg/kg/injection, schedule: Q01DX009 (ip), vehicle: water): 105 % of control and 110 % of control

CCCCOc1ccc(Nc2c(C(=O)OCC)cnc3cc4c(cc23)OCO4)cc1
T/C [1]: 97 % of control
T/C [2]: 95 % of control
T/C [3]: 97 % of control

COc1cc2cc(c1Cl)N(C)C(=O)CC(OC(=O)C(C)N(C)C(=O)C(C)C)C1(C)OC1C(C)C1CC(O)(NC(=O)O1)C(OC)/C=C/C=C(C)C2 (centres undefined)
T/C (dose: 0.1 micrograms/kg/injection, schedule: Q01DX009 (ip), vehicle: saline): 105 % of control
T/C (dose: 0.2 micrograms/kg/injection, schedule: Q01DX009 (ip), vehicle: saline): 115 % of control
T/C (dose: 3.1 micrograms/kg/injection, schedule: Q01DX009 (ip), vehicle: saline + alcohol): 157 % of control
T/C (dose: 3.1 micrograms/kg/injection, schedule: Q01DX009 (ip), vehicle: saline): 150 % of control
T/C (dose: 6.3 micrograms/kg/injection, schedule: Q01DX009 (ip), vehicle: saline + alcohol): 167 % of control
T/C (dose: 6.3 micrograms/kg/injection, schedule: Q01DX009 (ip), vehicle: saline): 161 % of control
T/C (dose: 12.5 micrograms/kg/injection, schedule: Q01DX009 (ip), vehicle: saline + alcohol): 150 % of control

COc1ccc(NC2=CC(=S)NC(C)(C)C2)cc1
T/C [4]: 92 % of control
T/C [5]: 104 % of control
T/C [6]: 104 % of control

C[N+](C)(C)CCC(=O)c1ccccc1
T/C [7]: 99 % of control
T/C [8]: 96 % of control

OC(CCl)C(O)C(O)C(O)CCl (centres undefined)
T/C (dose: 100.0 mg/kg/injection, schedule: Q04DX003 (ip), vehicle: saline with Tween-80): 109 % of control
T/C (dose: 200.0 mg/kg/injection, schedule: Q04DX003 (ip), vehicle: saline with Tween-80): 100 % of control
T/C (dose: 400.0 mg/kg/injection, schedule: Q04DX003 (ip), vehicle: saline with Tween-80): 113 % of control

O=C(O)CCCNC(=O)Cc1ccccc1
T/C (dose: 50.0 mg/kg/injection, schedule: Q01DX005 (ip), vehicle: saline): 93 % of control
T/C (dose: 100.0 mg/kg/injection, schedule: Q01DX005 (ip), vehicle: saline): 90 % of control

c1ccc(CSC2=NCCCC2)cc1
T/C (dose: 100.0 mg/kg/injection, schedule: Q04DX002 (ip), vehicle: saline with Tween-80): 98 % of control
T/C (dose: 200.0 mg/kg/injection, schedule: Q04DX002 (ip), vehicle: saline with Tween-80): 105 % of control
T/C (dose: 400.0 mg/kg/injection, schedule: Q04DX002 (ip), vehicle: saline with Tween-80): 100 % of control

CC(C(=O)O)S(=O)(=O)C(C)C(=O)O (centres undefined)
T/C (dose: 100.0 mg/kg/injection, schedule: Q04DX002 (ip), vehicle: saline): 98 % of control
T/C (dose: 200.0 mg/kg/injection, schedule: Q04DX002 (ip), vehicle: saline): 91 % of control

CC(C)(C)C1CCC=CC(=O)C1 (centres undefined)
T/C (dose: 100.0 mg/kg/injection, schedule: Q04DX003 (ip), vehicle: Klucel (hydroxypropylcellulose) (HPC)): 105 % of control
T/C (dose: 200.0 mg/kg/injection, schedule: Q04DX003 (ip), vehicle: Klucel (hydroxypropylcellulose) (HPC)): 113 % of control

C=C1C(=O)C23C(O)CC4C5(C)CCCC4(C(O)OC5)C2C(OC(C)=O)CC1C3O (centres undefined)
T/C (dose: 4.0 mg/kg/injection, schedule: Q01DX009 (ip), vehicle: other): 115 % of control
T/C (dose: 4.0 mg/kg/injection, schedule: Q01DX009 (ip), vehicle: water): 114 % of control
T/C (dose: 8.0 mg/kg/injection, schedule: Q01DX009 (ip), vehicle: water): 116 % of control
T/C (dose: 16.0 mg/kg/injection, schedule: Q01DX009 (ip), vehicle: other): 122 % of control
T/C (dose: 16.0 mg/kg/injection, schedule: Q01DX009 (ip), vehicle: water): 114 % of control
T/C (dose: 32.0 mg/kg/injection, schedule: Q01DX009 (ip), vehicle: water): 107 % of control

CCCCCCCCCCCCCCCCCC(=O)OCCCCCCCCCCCCC
T/C (dose: 100.0 mg/kg/injection, schedule: Q01DX001 (ip), vehicle: other): 95 % of control
T/C (dose: 200.0 mg/kg/injection, schedule: Q01DX001 (ip), vehicle: other): 100 % of control
T/C (dose: 400.0 mg/kg/injection, schedule: Q01DX001 (ip), vehicle: other): 95 % of control

Cc1ncc([N+](=O)[O-])n1Cc1nncs1
T/C [9]: 108 % of control
T/C [10]: 107 % of control
T/C [11]: 104 % of control

O=[N+]([O-])c1ccc(Cl)nc1Sc1ncccn1
T/C (dose: 6.25 mg/kg/injection, schedule: Q01DX009 (ip), vehicle: Klucel (hydroxypropylcellulose) (HPC)): 96 % of control
T/C [7]: 91 % of control
T/C [8]: 104 % of control
T/C [10]: 95 % of control

O=C1c2c(O)cccc2C(Br)c2cccc(O)c21
T/C [1]: 107 % of control
T/C [2]: 114 % of control
T/C [3]: 98 % of control

Cc1ccc2sc3ccccc3c(=O)c2c1
T/C [4]: 104 % of control
T/C [5]: 113 % of control
T/C [6]: 87 % of control

CN(C)C(=O)ONC(=O)c1ccccc1
T/C [9]: 105 % of control
T/C [10]: 109 % of control
T/C [11]: 108 % of control

CCCCCCC(/C=C/c1ccc(Cl)c(Cl)c1)=N\NC(N)=S
T/C [4]: 105 % of control
T/C [5]: 106 % of control
T/C [6]: 107 % of control

O=C(O)CCCCCSCCCCCCSCCCCCC(=O)O
T/C [12]: 102 % of control
T/C [13]: 105 % of control
T/C [14]: 100 % of control

c1ccc(-c2nc3ccccc3nc2-c2ccc(-c3nc4ccccc4nc3-c3ccccc3)cc2)cc1
T/C (dose: 6.25 mg/kg/injection, schedule: Q01DX009 (ip), vehicle: saline with Tween-80): 112 % of control
T/C (dose: 12.5 mg/kg/injection, schedule: Q01DX009 (ip), vehicle: saline with Tween-80): 90 % of control

Cc1c(C#N)sc2ccccc12
T/C (dose: 25.0 mg/kg/injection, schedule: Q01DX009 (ip), vehicle: other): 96 % of control
T/C (dose: 50.0 mg/kg/injection, schedule: Q01DX009 (ip), vehicle: other): 105 % of control
T/C (dose: 100.0 mg/kg/injection, schedule: Q01DX009 (ip), vehicle: other): 89 % of control

COc1ccc2nc(C#N)ccc2c1
T/C [15]: 92 % of control
T/C [16]: 90 % of control
T/C [17]: 95 % of control

C=CCCN=C(SC)SC
T/C (dose: 60.0 mg/kg/injection, schedule: Q01DX005 (ip), vehicle: saline with Tween-80): 104 % of control
T/C (dose: 120.0 mg/kg/injection, schedule: Q01DX005 (ip), vehicle: saline with Tween-80): 114 % of control

Cc1oc2c(c(=O)c1C)C1CCC(C2)N1C (centres undefined)
T/C [12]: 106 % of control
T/C [13]: 97 % of control

O=C1NC(=O)N(CCO)C(=O)C1c1ccccc1 (centres undefined)
T/C [9]: 101 % of control
T/C [10]: 101 % of control
T/C [11]: 94 % of control

CC1(C)COC(c2ccccc2-c2ccccc2C2OCC(C)(C)CO2)OC1
T/C (dose: 100.0 mg/kg/injection, schedule: Q04DX003 (ip), vehicle: saline): 100 % of control
T/C (dose: 200.0 mg/kg/injection, schedule: Q04DX003 (ip), vehicle: saline): 99 % of control
T/C (dose: 400.0 mg/kg/injection, schedule: Q04DX003 (ip), vehicle: saline): 104 % of control

N#C/C(=C1/OC(=N)C(c2ccccc2Cl)C1=O)c1ccccc1Cl (centres undefined)
T/C [15]: 103 % of control
T/C [16]: 107 % of control
T/C [17]: 103 % of control

COc1ccc2c(c1)CCc1c-2n[nH]c1-c1[nH]nc2c1CCc1cc(OC)ccc1-2
T/C [1]: 93 % of control
T/C [2]: 93 % of control
T/C [3]: 94 % of control

Cc1ccc(S(=O)c2ccccc2C(O)(C(F)(F)F)C(F)(F)F)cc1 (centres undefined)
T/C [12]: 99 % of control
T/C [13]: 99 % of control
T/C [14]: 92 % of control
